Laboratory results from US9828375B2, “4-position substituted pyrazolopyrimidine derivative, and use thereof in drug preparation” (Guangxi Wuzhou Pharmaceuticals (Group) Co., Ltd., priority 2012, dated 2017).
pIC50: −log10 of the molar value. Like-named read-outs stand apart in the source and are kept apart here.

What was measured:
[1] = tested on: human malignant melanoma cell line A375; test: In vitro tumor cell proliferation inhibition (MTT): A375; format: cell-based
Description: (§1) The purpose of the experiment was to test the inhibition activity of the compounds of the invention for in vitro human tumor cell proliferation by the methyl thiazolyl tetrazolium (MTT) colorimetry.
(§2) Main reagents: RPMI-1640, fetal bovine serum, pancreatin, etc. were purchased from Gibco BRL Company (Invitrogen Corporation, USA) and IMDM medium that was purchased from American Type Culture Collection (ATCC). Methyl thiazolyl tetrazolium (MTT) and dimethyl sulfoxide (DMSO) were products from Sigma Company (USA). Pyrazolopyrimidine derivatives were composed by the inventor. During in vitro experiment, 100% DMSO was prepared into 10 mM storage solution, the solution was stored in a refrigerator at −20° C. for future use, and was diluted to the required concentration with complete culture solution before use.
(§3) Cell line and culture: Human leukemia cell line MV4-11, Jurkat, K562, human thyrophyma cell line TT, human gastric carcinoma cell line MKN-45, human malignant melanoma cell lines A375 and A875, human pancreatic carcinoma cell line panc-1, human cervical carcinoma cell line HELA, human colorectal carcinoma cell line HCT116, etc. were purchased from American type culture collection and were preserved by this laboratory. All leukemia cell lines (except MV4-11), gastric carcinoma cell lines and thyrophyma cell lines were cultured in RPMI-1640 complete medium containing 10% fetal bovine serum, 100 U/mL penicillin and 100 μg/mL streptomycin at 37° C. in 5% CO2. The remaining cell lines were cultured in DMEM complete medium containing 10% fetal bovine serum (containing 20% MV4-11 cell), 100 U/mL penicillin and 100 µg/mL streptomycin at 37° C. in 5% CO2.
(§4) Cell suspension with cell concentration of 1-2×10^4/mL was adjusted with the complete cell medium and inoculated in a 96-well plate, with each well filled with 200 μl cell suspension that was cultured overnight. On the next day, supernatant was sucked and abandoned (supernatant was sucked upon centrifugation of suspension cells), and then cells were processed with test compounds at gradient concentrations respectively. Meanwhile, a negative control group free from drug and a solvent control group with equal volume were set, and the DMSO concentration was 0.1%. Each dose group was provided with three wells and cultured at 37° C. in 5% CO2. After 72 hours, 20 μl 5 mg/mL MTT reagent was added to each well, and cultured for another 2 to 4 hours, the supernatant was abandoned; 150 μL DMSO was added to each well again, vibrated and mixed evenly for 15 minutes; the absorbance (A) values (proportional to living cell amount) were determined with a microplate reader (λ=570 nm) and averaged. […] Experiment was repeated for 3 times at least. Experimental data were expressed with means, data statistics were tested by t, and P<0.05 means that difference has a statistical significance. The cell proliferation inhibition effects of all compounds as follows are expressed by IC50 or inhibition rate.

[2] = target: FGFR2 (Homo sapiens, UniProt P21802); test: Kinase inhibition activity test, isotope labeling: FGFR2; format: biochemical; conditions: test compound at a concentration of 10 μM; for inhibition at 10 µM: read-out: Activity inhibition rate FGFR2 (h)
Procedure: (§5) The purpose of this experiment was to test the inhibitory activity of the compound of the invention for in vitro kinase with the isotope labeling method (the γ phosphate group on ATP was labeled). In this experiment, the in vitro activity inhibition of such kinases as FLT3, VEGFR2, FLT1, FLT4, RET, c-RAF, B-RAF, c-KIT, PDGFα, PDGFβ, FGFR2, FGFR1, EphA2, EphB2, SRC, ABL, ALK and Met was tested respectively. Staurosporine was reference molecule (or referred to as positive control). The kinase inhibition activity of the test compound was expressed by half-inhibitory concentration (IC50) or the kinase activity inhibition rate of the test compound at a concentration of 10 μM. The IC50 value could be obtained by calculating the kinase activity inhibition rate of the test compound at different concentrations.
(§6) 20 mM 3-(N-morpholinyl)propanesulfonic acid (MOPS); 1 mM ethylenediaminetetraacetic acid (EDTA), 0.01% Brij 35 (Brij-35), 5% glycerol, 0.1% mercaptoethanol, 1 mg/mL bovine serum albumin (BSA), 10 mM manganous dichloride solution (MnCl2), 0.1 mg/mL glutamic acid/tyrosine (4:1) polypeptide (poly(Glu, Tyr)4:1), 50 μM EAIYAAPFAKKK (substrate of FLT3), 0.33 mg/mL myelin basic protein (substrate of VEGFR2), 250 μM KKKSPGEYVNIEFG (substrate of FLT1(h)), 500 μM GGEEEEYFELVKKKK (substrate of FLT4(h)), 250 μM KKKSPGEYVNIEFG (substrate of RET), 0.66 mg/mL myelin basic protein (substrate of C-RAF), 250 μM GGMEDIYFEFMGGKKK (substrate of c-Kit), 250 μM GGMEDIYFEFMGGKKK (substrate of PDGFα), 250 μM KKKSPGEYVNIEFG (substrate of FGFR1), […] GGEEEEYFELVKKKK (substrate of SRC), 50 μM EAIYAAPFAKKK (substrate of ABL), 250 μM KKKSPGEYVNIEFG (substrate of ALK), 250 μM KKKSPGEYVNIEFG (substrate of Met(h)), 10 mM magnesium acetate and γ-^33 P-ATP solution, stop buffer (3% phosphate buffer), washing buffer (75 mM phosphate solution), methanol, Filtermat A membrane, FLT3, VEGFR2, FLT3, VEGFR2, FLT1, FLT4, RET, c-RAF, B-RAF, c-KIT, PDGFRα, PDGFRβ, FGFR2, FGFR1, EphA2, EphB2, SRC, ABL, ALK, Met and other kinases, and the test compounds.
(§7) Buffers (8 mM MOPS with pH value of 7.0, 0.2 mM EDTA and 10 mM MnCl2), (5-10 mU) kinases to be tested (FLT3, VEGFR2, FLT1, FLT4, RET, c-RAF, B-RAF, c-KIT, PDGFRα, PDGFRβ, FGFR2, FGFR1, EphA2, EphB2, SRC, ABL, ALK and Met), substrates of kinases to be tested (refer to experimental materials), 10 mM magnesium acetate and γ-^33 P-ATP solution, and test compounds at different concentrations were added to a reaction tube orderly. […] Reaction was terminated with 5 μL 3% phosphate buffer finally, and 10 μL reaction solution was titrated to the Filtermat A membrane; solution was washed for 3 times with 75 mM phosphate solution with each time lasting 5 minutes, and then washed once with methanol. Finally, the Filtermat A membrane was dried, and scintillation counting was performed on the membrane, with scintillation count reflecting the phosphorylation degree of the substrates, so that the activity inhibition of kinase could be characterized.

[3] = tested on: human pancreatic carcinoma cell line panc-1; test: In vitro tumor cell proliferation inhibition (MTT): panc-1; format: cell-based
Description: as §1, §2, §3, §4

[4] = tested on: human colorectal carcinoma cell line HCT116; test: In vitro tumor cell proliferation inhibition (MTT): HCT116; format: cell-based
Description: as §1, §2, §3, §4

[5] = target: VEGFR2 (Homo sapiens, UniProt P35968); test: Kinase inhibition activity test, isotope labeling (γ-33P-ATP): VEGFR2; format: biochemical; conditions: for pIC50: ATP 90 μM, read-out: VEGFR2 IC50 value (inhibitory activity value); for Activity inhibition rate VEGFR2 (h) / inhibition at 10 µM: test compound at a concentration of 10 μM; for inhibition at 10 µM: read-out: Activity inhibition rate VEGFR2 (h)
Procedure: as §5, §6, §7

[6] = 72 hours, read-out: Proliferation inhibition activity (IC50) HCT 116
[7] = Homo sapiens, HCT-116, 72 hours

Chain of FGFR2 (P21802 22-821): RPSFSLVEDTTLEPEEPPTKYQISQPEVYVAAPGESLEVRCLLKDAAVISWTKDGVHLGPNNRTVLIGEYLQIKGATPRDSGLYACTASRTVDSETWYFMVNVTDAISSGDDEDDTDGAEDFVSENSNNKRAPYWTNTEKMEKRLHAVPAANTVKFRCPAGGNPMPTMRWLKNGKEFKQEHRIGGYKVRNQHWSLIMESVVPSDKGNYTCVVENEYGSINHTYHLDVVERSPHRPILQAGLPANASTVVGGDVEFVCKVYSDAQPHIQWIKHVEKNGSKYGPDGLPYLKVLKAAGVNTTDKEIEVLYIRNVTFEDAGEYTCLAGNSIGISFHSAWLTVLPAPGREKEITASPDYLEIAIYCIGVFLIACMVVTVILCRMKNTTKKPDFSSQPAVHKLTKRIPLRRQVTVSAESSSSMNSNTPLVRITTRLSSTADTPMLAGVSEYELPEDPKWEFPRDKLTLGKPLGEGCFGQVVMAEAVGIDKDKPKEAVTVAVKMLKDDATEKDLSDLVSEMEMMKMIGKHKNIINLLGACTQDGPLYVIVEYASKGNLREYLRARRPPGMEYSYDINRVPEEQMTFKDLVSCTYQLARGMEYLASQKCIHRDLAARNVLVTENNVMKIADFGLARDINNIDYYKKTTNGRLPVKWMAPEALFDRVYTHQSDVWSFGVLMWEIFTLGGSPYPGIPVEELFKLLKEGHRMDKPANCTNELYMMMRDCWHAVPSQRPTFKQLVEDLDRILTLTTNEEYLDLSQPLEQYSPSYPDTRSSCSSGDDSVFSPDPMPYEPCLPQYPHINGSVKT
Chain of VEGFR2 (P35968 20-1356): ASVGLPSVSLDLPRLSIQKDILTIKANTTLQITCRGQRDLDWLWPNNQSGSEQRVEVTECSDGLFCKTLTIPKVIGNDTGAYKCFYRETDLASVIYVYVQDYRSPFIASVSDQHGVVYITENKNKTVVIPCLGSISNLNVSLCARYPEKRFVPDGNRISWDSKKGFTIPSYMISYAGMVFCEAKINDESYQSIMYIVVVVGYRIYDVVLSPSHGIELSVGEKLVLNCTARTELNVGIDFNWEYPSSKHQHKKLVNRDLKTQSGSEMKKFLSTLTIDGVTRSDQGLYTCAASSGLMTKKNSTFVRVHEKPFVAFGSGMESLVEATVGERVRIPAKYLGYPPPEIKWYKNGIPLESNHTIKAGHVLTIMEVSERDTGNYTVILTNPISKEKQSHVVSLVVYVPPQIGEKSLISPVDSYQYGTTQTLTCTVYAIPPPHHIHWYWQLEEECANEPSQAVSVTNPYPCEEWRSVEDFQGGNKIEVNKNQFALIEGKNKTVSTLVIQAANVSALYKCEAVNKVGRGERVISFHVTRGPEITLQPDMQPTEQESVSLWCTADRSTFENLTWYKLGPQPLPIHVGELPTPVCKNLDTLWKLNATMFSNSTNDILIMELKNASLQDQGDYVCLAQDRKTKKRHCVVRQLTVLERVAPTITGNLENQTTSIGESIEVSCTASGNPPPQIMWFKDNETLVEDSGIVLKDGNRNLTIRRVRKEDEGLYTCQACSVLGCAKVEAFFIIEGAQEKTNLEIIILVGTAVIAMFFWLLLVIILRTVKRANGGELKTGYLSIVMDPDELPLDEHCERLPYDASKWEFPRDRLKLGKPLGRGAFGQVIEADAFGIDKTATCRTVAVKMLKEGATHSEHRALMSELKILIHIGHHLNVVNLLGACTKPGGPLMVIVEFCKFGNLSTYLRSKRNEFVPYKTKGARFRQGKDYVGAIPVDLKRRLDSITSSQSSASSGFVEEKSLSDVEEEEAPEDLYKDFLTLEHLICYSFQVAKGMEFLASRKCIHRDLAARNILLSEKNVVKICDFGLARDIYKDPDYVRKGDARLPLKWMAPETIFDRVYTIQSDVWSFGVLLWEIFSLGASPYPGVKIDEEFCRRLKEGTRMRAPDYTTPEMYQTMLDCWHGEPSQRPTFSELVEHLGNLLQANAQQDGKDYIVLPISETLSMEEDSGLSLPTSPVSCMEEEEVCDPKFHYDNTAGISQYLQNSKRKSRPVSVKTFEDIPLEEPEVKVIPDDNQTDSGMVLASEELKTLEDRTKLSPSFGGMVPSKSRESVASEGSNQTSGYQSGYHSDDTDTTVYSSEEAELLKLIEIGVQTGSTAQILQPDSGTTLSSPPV

| pIC50 ([1]; 72 hours) | Activity inhibition rate FGFR2 (h) [2] [%] | pIC50 ([3]; 72 hours) | pIC50 [4, 6] | pIC50 [5] | Activity inhibition rate VEGFR2 (h) [5] [%] | pIC50 ([1]; Homo sapiens, A-375, 72 hours) | pIC50 ([3]; Homo sapiens, PANC-1, 72 hours) | pIC50 [4, 7] | inhibition at 10 µM [5] [%] | inhibition at 10 µM [2] [%] | Activity inhibition rate FGFR2 (h) ([2]; 10 µM) [%] | Activity inhibition rate VEGFR2 (h) ([5]; 10 µM) [%] | Compound |
| --- | --- | --- | --- | --- | --- | --- | --- | --- | --- | --- | --- | --- | --- |
| 5.33 | 6 | 5.33 | 5.24 | 7.54 | 100 |  |  |  |  |  |  |  | 1-(4-((1H-pyrazolopyrimidine-4-yl)oxy)-3-fluorophenyl)-3-(3-trifluoromethoxy)phenyl)urea [4a-8] |
| > 4.30 | 19 | > 4.30 | > 4.30 |  | 64 |  |  |  |  |  |  |  | 1-(4-((1H-pyrazolopyrimidine-4-yl)oxy)phenyl)-3-(methylcyclohexyl)urea [4a-20] |
| > 4.30 | 51 | > 4.30 | > 4.30 | 7.49 | 100 |  |  |  |  |  |  |  | CC(C)c1cccc(NC(=O)Nc2ccc(Oc3ncnc4[nH]ncc34)c(F)c2)c1 [4a-7, 1-(4-((1H-pyrazolopyrimidine-4-yl)oxy)-3-fluorophenyl)-3-(3-isopropylphenyl)urea] |
| > 4.30 | 53 | > 4.30 | > 4.30 | 7.68 | 100 |  |  |  |  |  |  |  | O=C(Nc1ccc(Oc2ncnc3[nH]ncc23)c(F)c1)Nc1ccc(Cl)c(C(F)(F)F)c1 [4a-10, 1-(4-((1H-pyrazolopyrimidine-4-yl)oxy)-3-fluorophenyl)-3-(4-chloro-3-(trifluoromethyl)phenyl)urea] |
| > 4.30 | 71 | > 4.30 | > 4.30 | 7.62 | 100 |  |  |  |  |  |  |  | O=C(Nc1ccc(Oc2ncnc3[nH]ncc23)cc1)Nc1cc(C(F)(F)F)cc(C(F)(F)F)c1 [4a-12, 1-(4-((1H-pyrazolopyrimidine-4-yl)oxy)phenyl)-3-(3,5-bis(trifluoromethyl)phenyl)urea] |
| > 4.30 | 100 | > 4.30 | > 4.30 | 7.55 | 100 |  |  |  |  |  |  |  | O=C(Nc1ccccc1)Nc1ccc(Oc2ncnc3[nH]ncc23)cc1 [4a-15, 1-(4-((1H-pyrazolopyrimidine-4-yl)oxy)phenyl)-3-phenylurea] |
|  |  |  |  |  |  | > 4.30 | > 4.30 | > 4.30 | 91 |  |  |  | O=C(Nc1ccc(Oc2ncnc3[nH]ncc23)cc1)Nc1ccc(N2CCOCC2)cc1 [4a-16, 1-(4-((1H-pyrazolopyrimidine-4-yl)oxy)phenyl)-3-(4-morpholinylphenyl)urea] |
| > 4.30 | 22 | > 4.30 | > 4.30 |  | 95 |  |  |  |  |  |  |  | C[C@H](NC(=O)Nc1ccc(Oc2ncnc3[nH]ncc23)cc1)c1ccccc1 [4a-18, (S)-1-(4-((1H-pyrazolopyrimidine-4-yl)oxy)phenyl)-3-(1-phenethyl)urea] |
| > 4.30 | 17 | > 4.30 | > 4.30 |  | 92 |  |  |  |  |  |  |  | C[C@@H](NC(=O)Nc1ccc(Oc2ncnc3[nH]ncc23)cc1)c1ccccc1 [4a-19, (R)-1-(4-((1H-pyrazolopyrimidine-4-yl)oxy)phenyl)-3-(1-phenethyl)urea] |
|  |  |  |  |  |  | > 4.30 | > 4.30 | > 4.30 | 93 | 22 |  |  | O=C(Nc1cccc(Nc2ncnc3[nH]ncc23)c1)Nc1ccc(F)c(Cl)c1 [4b-1] |
|  |  |  |  |  |  | > 4.30 | > 4.30 | > 4.30 | 88 |  | 66 |  | C[C@@H](NC(=O)Nc1ccc(Nc2ncnc3[nH]ncc23)cc1)c1ccccc1 [4b-2, (R)-1-(4-(1H-pyrazolopyrimidine-4-amido)phenyl)-3-(1-phenethyl)urea] |
|  |  |  |  |  |  | > 4.30 | > 4.30 | > 4.30 | 96 | 45 |  |  | COc1cccc(NC(=O)Nc2ccc(Nc3ncnc4[nH]ncc34)cc2)c1 [4b-3] |
| > 4.30 |  | > 4.30 | > 4.30 |  |  |  |  |  |  |  | 32 | 94 | C[C@H](NC(=O)Nc1ccc(Nc2ncnc3[nH]ncc23)cc1)c1ccccc1 [4b-4] |
|  |  |  |  |  |  | > 4.30 | > 4.30 | > 4.30 | 95 | 32 |  |  | COc1ccc(NC(=O)Nc2ccc(NC(=O)N3C=NC=C4NNC=C43)cc2)cc1 [4b-6, 1-(4-(1H-pyrazolopyrimidine-4-amido)phenyl)-3-(4-methoxyphenyl)urea] |
|  |  |  |  |  |  | > 4.30 | > 4.30 | > 4.30 | 92 | 69 |  |  | Cc1cc(C)c(NC(=O)Nc2ccc(NC(=O)N3C=NC=C4NNC=C43)cc2)c(C)c1 [4b-7, 1-(4-(1H-pyrazolopyrimidine-4-amido)phenyl)-3-(2,4,6-trimethylphenyl)urea] |
|  |  |  |  |  |  | > 4.30 | > 4.30 |  | 100 | > 50 |  |  | O=C(Nc1ccc(Sc2ncnc3[nH]ncc23)cc1)Nc1ccc(C(F)(F)F)cc1 [4c-1] |
